{"source": "patent US20160000777A1", "about": "“METHODS OF USING HISTAMINE RECEPTOR AGONISTS AND ANTAGONISTS” (UNIVERSITY OF ROCHESTER, priority 2013, published 2016)", "key": {"pro-Filaggrin (pro-FLG)": {"tested_on": "pro-Filaggrin (pro-FLG)", "details": "FIG. 6", "quoted_text": "Human keratinocytes were isolated from neonatal foreskin as previously described (Poumay et al., “Basal Detachment of the Epidermis Using Dispase: Tissue Spatial Organization and Fate of Integrin alpha 6 beta 4 and Hemidesmosomes,” J Invest Dermatol 102:111-7 (1994), which is hereby incorporated by reference in its entirety). PHK were cultured in Keratinocyte-SFM (Invitrogen/Gibco, Grand Island, N.Y.) with 5 ng/ml human recombinant Epidermal Growth Factor 1-53 (EGF 1-53), 50 μg/ml Bovine Pituitary Extract (BEP), 1% Pen/Strep, and 0.2% Amphotericin B (Invitrogen/Gibco). To induce terminal differentiation PHK were grown in DMEM (Invitrogen/Gibco) with 1% Pen/Strep and 0.2% Amphotericin B (Invitrogen/Gibco). Where it is indicated, 10% heat-inactivated bovine serum (Invitrogen) was added to the differentiation media. […] The protein concentration of all samples was determined by BCA (Pierce). […] TJ integrity was assessed by trans-epithelial electrical resistance (TEER) and paracellular fluorescein flux (permeability). […] Keratinocyte differentiation was assessed by examining filaggrin, loricrin and keratin 10 expression by Western blot. Expression of HRs were evaluated by qPCR in skin biopsies taken from lesional and nonlesional sites in AD subjects (n=6-8) and non-atopics (n=10)."}, "human skin explant": {"tested_on": "human skin explant", "details": "ex-vivo epidermal explants, histamine 100 μM, 24 hr, P<0.05, n=3", "method": "Briefly, TEER was measured using an EVOMX voltohmmeter (World Precision Instruments, Sarasota, Fla.). To evaluate the paracellular flux of PHK, 0.02% Fluorescein (FITC) Sodium (Fluka, St. Louis, Mo.) in PBS (Invitrogen/Gibco) was added to the upper chamber. Samples were collected from the lower chamber after 30 minutes incubation for PHK culture or 10 and 20 minutes for skin explant. For each experiment paracellular flux was normalized to an empty filter.\nSkin samples were mounted on filter supports (Whatman Nuclepore Track-Etch Membrane; GE Healthcare Biosciences, Pittsburgh, Pa.) with the epidermal side oriented upward, and sandwiched between two sterile custom made Plexiglas discs with an opening of 3 mm and placed in modified Snapwell™ chambers (Corning, Corning, N.Y., USA). Samples were submerged in DMEM media and kept at 37° C., 5% CO2 for 30 min. Fresh media with histamine (10 or 100 μM) or media alone were then added to both sides of the transwell. TEER and Paracellular flux of fluorescein of skin explant were measured at 24 hr."}, "ZO-1": {"tested_on": "ZO-1", "details": "nasal and retinal epithelial cells, cited from earlier work"}, "[1]": {"tested_on": "primary human keratinocytes (PHK)", "experiment": "Paracellular fluorescein flux (permeability) in cultured primary human keratinocytes", "format": "cell-based", "details": "histamine 100 μM, P<0.001, n=9, 96 hrs, FIG. 2B", "quoted_text": "(§1) PHK were cultured in Keratinocyte-SFM (Invitrogen/Gibco, Grand Island, N.Y.) with 5 ng/ml human recombinant Epidermal Growth Factor 1-53 (EGF 1-53), 50 μg/ml Bovine Pituitary Extract (BEP), 1% Pen/Strep, and 0.2% Amphotericin B (Invitrogen/Gibco). To induce terminal differentiation PHK were grown in DMEM (Invitrogen/Gibco) with 1% Pen/Strep and 0.2% Amphotericin B (Invitrogen/Gibco). Where it is indicated, 10% heat-inactivated bovine serum (Invitrogen) was added to the differentiation media. […] Briefly, TEER was measured using an EVOMX voltohmmeter (World Precision Instruments, Sarasota, Fla.). To evaluate the paracellular flux of PHK, 0.02% Fluorescein (FITC) Sodium (Fluka, St. Louis, Mo.) in PBS (Invitrogen/Gibco) was added to the upper chamber. Samples were collected from the lower chamber after 30 minutes incubation for PHK culture or 10 and 20 minutes for skin explant. For each experiment paracellular flux was normalized to an empty filter. […] TJ integrity was assessed by trans-epithelial electrical resistance (TEER) and paracellular fluorescein flux (permeability)."}, "[2]": {"tested_on": "primary human keratinocytes (PHK)", "experiment": "Transepithelial electric resistance (TEER) in cultured primary human keratinocytes", "format": "cell-based", "quoted_text": "as §1"}, "airway epithelial cells": {"tested_on": "airway epithelial cells", "details": "cited from earlier work"}, "human keratinocytes": {"tested_on": "human keratinocytes", "details": "cited from earlier work"}}}
{"smiles": "O=C(O)COCCN1CCN(C(c2ccccc2)c2ccc(Cl)cc2)CC1", "note": "(centres unmarked) [Cetirizine]", "values": [{"measurement": "Prevention of histamine-mediated reduction of pro-FLG expression", "setting": "pro-Filaggrin (pro-FLG); PHK co-treated with 100 μM histamine and 10 μM Cetirizine", "value": "prevented"}]}
{"smiles": "NCCc1c[nH]cn1", "note": "[histamine]", "values": [{"measurement": "Fluorescein permeability flux, Fold of control (FOC)", "setting": "human skin explant; 20 minutes time point, FIG. 3B", "value": 1.3, "unit": "fold"}, {"measurement": "TEER, Fold of control (FOC)", "setting": "human skin explant; FIG. 3A", "value": 0.7, "unit": "fold"}, {"measurement": "pro-FLG expression", "setting": "pro-Filaggrin (pro-FLG); PHK at day 5 post differentiation, 100 μM histamine, Western blot, n=4", "value": "significantly reduced"}, {"measurement": "Expression of ZO-1", "setting": "ZO-1", "value": "reduce the expression"}, {"measurement": "Permeability to Fluorescein, Mean Fold of control (FOC)", "setting": "[1]", "value": "enhancement of permeability"}, {"measurement": "TEER peak", "setting": "[2]; PHK differentiated in DMEM serum free media, histamine 100 μM, 96 hours post-stimulation, n=4, FIG. 2C", "value": "significantly reduced TEER peak"}, {"measurement": "TEER, Mean Area under the curve (AUC)", "setting": "[2]; PHK, histamine 10 and 100 μM, P<0.001, n=10, AUC of 0-120 h time points, FIG. 2A", "value": "dose dependent reduction of TEER"}, {"measurement": "TJ paracellular permeability", "setting": "airway epithelial cells", "value": "enhance TJ paracellular permeability"}, {"measurement": "Expression of stratum corneum and granulosum barrier proteins (e.g. filaggrin, Loricrin, claudin1, occludin)", "setting": "human keratinocytes", "value": "reduced the expression"}]}
{"smiles": "COc1ccc(CN(CCN(C)C)c2ccccn2)cc1", "note": "[mepyriamine]", "values": [{"measurement": "Abrogation of histamine effect on ZO-1 expression", "setting": "ZO-1; pretreatment with antagonist", "value": "at least partially abrogated"}]}
